This is an account of results in article PMC4987671, “Inhibition of cytochrome P450 3A by acetoxylated analogues of resveratrol in in vitro and in silico models” (Scientific Reports, 2016).

This data set concerns the target CYP3A4 (Homo sapiens, UniProt P08684). Briefly: inhibition of testosterone metabolism in Caco-2/TC7 cells (HPLC). The class given is cell-based.
Setting [1] is: read-out: % inhibition at 10 μM.

SMILES strings stand for the structures. Read-outs that look alike come from different tables or passages of the source.

CYP3A4, sequence (P08684 2-503): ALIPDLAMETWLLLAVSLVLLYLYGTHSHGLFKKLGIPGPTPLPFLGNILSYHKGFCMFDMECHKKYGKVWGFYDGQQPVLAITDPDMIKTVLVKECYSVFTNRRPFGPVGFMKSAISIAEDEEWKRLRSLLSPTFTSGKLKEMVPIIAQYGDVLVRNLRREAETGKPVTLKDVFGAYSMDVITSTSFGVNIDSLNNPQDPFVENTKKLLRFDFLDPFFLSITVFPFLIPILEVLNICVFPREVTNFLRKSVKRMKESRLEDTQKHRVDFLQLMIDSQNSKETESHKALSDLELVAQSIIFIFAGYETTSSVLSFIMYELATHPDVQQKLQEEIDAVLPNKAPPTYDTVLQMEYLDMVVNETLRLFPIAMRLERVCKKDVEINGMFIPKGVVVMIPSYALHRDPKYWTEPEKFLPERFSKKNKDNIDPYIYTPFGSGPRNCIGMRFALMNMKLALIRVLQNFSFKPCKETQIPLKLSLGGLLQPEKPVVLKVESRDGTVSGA

As for `CC(=O)Oc1ccc(/C=C/c2cc(O)cc(O)c2)cc1` [MAR, 4′-acetoxy-3,5-hydroxy-stilbene], the inhibition at 10 µM under setting [1] came to 24%. As to `CC(=O)N1CCN(c2ccc(OC[C@H]3COC(Cn4ccnc4)(c4ccc(Cl)cc4Cl)O3)cc2)CC1` (some centres unmarked) [ketoconazole, reference compound], the inhibition at 10 µM was about 80%. Regarding `Oc1ccc(/C=C/c2cc(O)cc(O)c2)cc1` [resveratrol, trans-3,4′,5-trihydroxystilbene], the inhibition at 10 µM under setting [1] is over 80%. Consider `CC(=O)Oc1ccc(/C=C/c2cc(O)cc(OC(C)=O)c2)cc1` [DAR, 3,4′-acetoxy-5-hydroxy-stilbene], for which, under setting [1], the inhibition at 10 µM came out at 45%. Still for that read-out and setting: to `CC(=O)Oc1ccc(/C=C/c2cc(OC(C)=O)cc(OC(C)=O)c2)cc1` [TAR, 3,4′,5-acetoxystilbene] belongs 10%.

As usually defined, the inhibition is the relative decrease from the control value, in per cent.
